In ChEMBL document CHEMBL1150083, “The Racemization of Crinitol. Resolution of Crinitol and of 3-Nonen-2-ol Enantiomers by Recycle-HPLC, via MTPA Esters” (J Nat Prod, 1995):
Activity calls are given as the source filed them.

Tests used:
Format in all cases: functional, organism-based
[1] = system: Corynebacterium ammoniagenes; assay: Antimicrobial activity against Brevibacterium ammoniagenes
Streptococcus mutans = assay: Antimicrobial activity against Streptococcus mutans
Bacillus subtilis = assay: Antimicrobial activity against Bacillus subtilis
Staphylococcus aureus = assay: Antimicrobial activity against Staphylococcus aureus
Cutibacterium acnes = assay: Antimicrobial activity against Propionibacterium acnes

Measured: Activity

CC(C)=CCC/C(C)=C/[C@@H](O)C/C(C)=C/CC/C(C)=C/CO
active: all assays above

CC(C)=CCC/C(C)=C/[C@H](O)C/C(C)=C/CC/C(C)=C/CO
active: all assays above
